According to EP3255116A1, “COMPOSITIONS COMPRISING A FLUOROOLEFIN” (The Chemours Company FC, LLC, priority 2005, dated 2006):

Columns and labels:
[1] = Kinematic viscosity of lactone compatibilizers; type: physicochemical; conditions: at 40°C
Procedure: Lactone compatibilizers generally have a kinematic viscosity of less than about 7 centistokes at 40°C. […] Lactone compatibilizers may be available commercially or prepared by methods as described in U. S. patent application 10/910,495 filed August 3, 2004, incorporated herein by reference.

[2] = Flammability test ASTM E681-01, lower and upper flammability limit in air (Example 6); type: physicochemical; conditions: 50 percent relative humidity; for LFL: lower flammability limit; for LFL / UFL: ASTM E681-01, 101 kPa (14.7 psia), 100 °C (212 °F); for UFL: upper flammability limit; for flammability: ASTM E681-01, 101 kPa, 100 °C
Procedure: Flammable compounds may be identified by testing under ASTM (American Society of Testing and Materials) E681-01, with an electronic ignition source. Such tests of flammability were conducted on HFC-1234yf, HFC-1225ye and a mixture of the present disclosure at 101 (kPa (14.7 psia), 100 °C (212 °F), and 50 percent relative humidity, at various concentrations in air in order to determine the lower flammability limit (LFL) and upper flammability limit (UFL). The results are given in […]. TABLE 14

| Structure (SMILES) | kinematic viscosity [1] [centistokes] | LFL [2] | UFL [2] | flammability [2] |
| --- | --- | --- | --- | --- |
| CCCCCC[C@H]1C[C@@H](C)OC1=O (relative stereo) [cis-(3-hexyl-5-methyl)dihydrofuran-2-one] | 4.5 |  |  |  |
| FC=C(F)C(F)(F)F [HFC-1225ye (100wt%)] |  | Non-flammable | Non-flammable |  |
| FC=C(F)C(F)(F)F [HFC-1225ye, 1,2,3,3,3-pentafluoropropene] |  |  |  | reduces the flammability |
| C=C(F)C(F)(F)F [HFC-1234yf (100 wt%)] |  | 5.0 vol % in air | 14.5 vol % in air |  |
| C=C(F)C(F)(F)F [HFC-1234yf, 2,3,3;3-tetrafluoropropene] |  |  |  | flammable |
